Assays:
Assay in all cases: Kinase profiling
Assay type in all cases: biochemical
Details in all cases: 0.1 or 1 μM inhibitor; mean of triplicate
BRK = BRK (Homo sapiens, UniProt Q13882)
How it was run: (§1)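 Each kinase of a 140-member panel was assayed in vitro in the presence of 0.1 or 1 μM inhibitor, and activity was expressed as a percentage of DMSO control reactions. Triplicate reactions were averaged, reported ±S.D.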

EPH-B4 = EPH-B4 (Homo sapiens, UniProt P54760)
HER4 = HER4 (Homo sapiens, UniProt Q15303)
How it was run: as §1

PKA = PKA (Homo sapiens, UniProt P17612)
How it was run: as §1

RSK1 = RSK1 (Homo sapiens, UniProt Q15418)
How it was run: as §1

PDGFRA = PDGFRA (Homo sapiens, UniProt P16234)
How it was run: as §1

EPH-A2 = EPH-A2 (Homo sapiens, UniProt P29317)
How it was run: as §1

TBK1 = TBK1 (Homo sapiens, UniProt Q9UHD2)
How it was run: as §1

MST3 = MST3 (Homo sapiens, UniProt Q9Y6E0)
JNK2 = JNK2 (Homo sapiens, UniProt P45984)
How it was run: as §1

HIPK2 = HIPK2 (Homo sapiens, UniProt Q9H2X6)
How it was run: as §1

ZAP70 = ZAP70 (Homo sapiens, UniProt P43403)
How it was run: as §1

Lck = Lck (Homo sapiens, UniProt P06239)
How it was run: as §1

JNK3 = JNK3 (Homo sapiens, UniProt P53779)
How it was run: as §1

DDR2 = DDR2 (Homo sapiens, UniProt Q16832)
How it was run: as §1

CHK1 = CHK1 (Homo sapiens, UniProt O14757)
How it was run: as §1

TAK1 = TAK1 (Homo sapiens, UniProt O43318)
How it was run: as §1

WNK1 = WNK1 (Homo sapiens, UniProt Q9H4A3)
How it was run: as §1

SmMLCK = SmMLCK (Homo sapiens, UniProt Q15746)
How it was run: as §1

CAMK1 = CAMK1 (Homo sapiens, UniProt Q14012)
How it was run: as §1

MARK2 = MARK2 (Homo sapiens, UniProt Q7KZI7)
How it was run: as §1

BRSK2 = BRSK2 (Homo sapiens, UniProt Q8IWQ3)
How it was run: as §1

TSSK1 = TSSK1 (Homo sapiens, UniProt Q9BXA7)
MSK1 = MSK1 (Homo sapiens, UniProt O75582)
How it was run: as §1

S6K1 = S6K1 (Homo sapiens, UniProt P23443)
How it was run: as §1

STK33 = STK33 (Homo sapiens, UniProt Q9BYT3)
How it was run: as §1

PKD1 = PKD1 (Homo sapiens, UniProt Q15139)
How it was run: as §1

PIM1 = PIM1 (Homo sapiens, UniProt P11309)
CDK9-Cyc T1 = CDK9-Cyc T1 (Homo sapiens, UniProt P50750)
EF2K = EF2K (Homo sapiens, UniProt O00418)
p38α MAPK = p38α MAPK (Homo sapiens, UniProt Q16539)
How it was run: as §1

ERK8 = ERK8 (Homo sapiens, UniProt Q8TD08)
How it was run: as §1

CDK2-Cyclin A = CDK2-Cyclin A (Homo sapiens, UniProt P24941)
How it was run: as §1

EPH-A4 = EPH-A4 (Homo sapiens, UniProt P54764)
How it was run: as §1

PKCα = PKCα (Homo sapiens, UniProt P17252)
How it was run: as §1

PAK5 = PAK5 (Homo sapiens, UniProt Q9P286)
How it was run: as §1

YES1 = YES1 (Homo sapiens, UniProt P07947)
How it was run: as §1

p38γ MAPK = p38γ MAPK (Homo sapiens, UniProt P53778)
PIM3 = PIM3 (Homo sapiens, UniProt Q86V86)
How it was run: as §1

SGK1 = SGK1 (Homo sapiens, UniProt O00141)
How it was run: as §1

MST2 = MST2 (Homo sapiens, UniProt Q13188)
How it was run: as §1

MARK4 = MARK4 (Homo sapiens, UniProt Q96L34)

Chain of S6K1 (P23443 whole entry): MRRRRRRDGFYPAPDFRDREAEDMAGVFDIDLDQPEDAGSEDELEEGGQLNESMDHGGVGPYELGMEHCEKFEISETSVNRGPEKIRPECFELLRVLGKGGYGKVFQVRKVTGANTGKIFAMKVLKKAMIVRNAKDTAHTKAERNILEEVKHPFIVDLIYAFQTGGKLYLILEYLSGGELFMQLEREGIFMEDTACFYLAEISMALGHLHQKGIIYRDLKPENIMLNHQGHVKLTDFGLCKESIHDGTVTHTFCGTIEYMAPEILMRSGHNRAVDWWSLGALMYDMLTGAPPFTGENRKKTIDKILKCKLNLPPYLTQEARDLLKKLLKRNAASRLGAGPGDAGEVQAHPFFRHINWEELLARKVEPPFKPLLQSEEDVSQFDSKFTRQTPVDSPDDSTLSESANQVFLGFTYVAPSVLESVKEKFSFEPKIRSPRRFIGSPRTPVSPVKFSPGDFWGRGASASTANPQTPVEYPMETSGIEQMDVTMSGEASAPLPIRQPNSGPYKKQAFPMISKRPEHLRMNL
Chain of CDK9-Cyc T1 (P50750 whole entry): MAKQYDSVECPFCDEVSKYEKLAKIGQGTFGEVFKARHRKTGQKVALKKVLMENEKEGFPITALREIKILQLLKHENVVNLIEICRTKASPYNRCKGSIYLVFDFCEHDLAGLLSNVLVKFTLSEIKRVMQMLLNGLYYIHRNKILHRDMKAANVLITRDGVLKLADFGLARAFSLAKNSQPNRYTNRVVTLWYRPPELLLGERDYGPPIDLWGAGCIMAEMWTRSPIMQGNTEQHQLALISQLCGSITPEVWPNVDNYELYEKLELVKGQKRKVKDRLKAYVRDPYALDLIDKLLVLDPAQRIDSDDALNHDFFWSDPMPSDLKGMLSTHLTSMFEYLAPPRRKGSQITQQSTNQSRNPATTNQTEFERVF
Chain of CDK9-Cyc T1 (O60563 whole entry partner): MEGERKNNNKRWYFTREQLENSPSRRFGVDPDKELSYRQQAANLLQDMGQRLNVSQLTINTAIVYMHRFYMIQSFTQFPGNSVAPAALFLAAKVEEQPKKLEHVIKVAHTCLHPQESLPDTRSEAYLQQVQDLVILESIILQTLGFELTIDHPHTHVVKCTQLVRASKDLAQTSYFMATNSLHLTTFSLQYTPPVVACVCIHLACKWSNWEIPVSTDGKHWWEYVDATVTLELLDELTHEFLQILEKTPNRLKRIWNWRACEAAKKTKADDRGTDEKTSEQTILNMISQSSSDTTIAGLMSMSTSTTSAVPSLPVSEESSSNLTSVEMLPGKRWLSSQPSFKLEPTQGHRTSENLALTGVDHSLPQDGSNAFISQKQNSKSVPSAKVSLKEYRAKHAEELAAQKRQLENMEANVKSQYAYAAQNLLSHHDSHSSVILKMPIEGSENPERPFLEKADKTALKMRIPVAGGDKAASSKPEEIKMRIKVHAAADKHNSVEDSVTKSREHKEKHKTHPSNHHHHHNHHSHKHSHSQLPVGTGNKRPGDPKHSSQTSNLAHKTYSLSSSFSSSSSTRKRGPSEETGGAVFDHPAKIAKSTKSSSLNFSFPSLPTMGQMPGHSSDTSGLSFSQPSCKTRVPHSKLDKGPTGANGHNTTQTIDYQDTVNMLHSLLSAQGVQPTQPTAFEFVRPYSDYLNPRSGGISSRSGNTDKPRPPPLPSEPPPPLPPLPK
Chain of p38γ MAPK (P53778 whole entry): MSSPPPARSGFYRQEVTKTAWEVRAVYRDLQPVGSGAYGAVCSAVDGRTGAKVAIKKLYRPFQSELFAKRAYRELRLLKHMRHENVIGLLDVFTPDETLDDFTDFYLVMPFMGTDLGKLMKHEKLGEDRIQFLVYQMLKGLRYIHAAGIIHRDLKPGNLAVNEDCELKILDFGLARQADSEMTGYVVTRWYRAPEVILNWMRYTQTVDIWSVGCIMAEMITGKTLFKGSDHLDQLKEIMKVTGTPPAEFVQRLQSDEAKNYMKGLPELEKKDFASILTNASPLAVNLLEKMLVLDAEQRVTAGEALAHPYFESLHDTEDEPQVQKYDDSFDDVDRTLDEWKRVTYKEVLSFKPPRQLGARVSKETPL
Chain of ZAP70 (P43403 whole entry): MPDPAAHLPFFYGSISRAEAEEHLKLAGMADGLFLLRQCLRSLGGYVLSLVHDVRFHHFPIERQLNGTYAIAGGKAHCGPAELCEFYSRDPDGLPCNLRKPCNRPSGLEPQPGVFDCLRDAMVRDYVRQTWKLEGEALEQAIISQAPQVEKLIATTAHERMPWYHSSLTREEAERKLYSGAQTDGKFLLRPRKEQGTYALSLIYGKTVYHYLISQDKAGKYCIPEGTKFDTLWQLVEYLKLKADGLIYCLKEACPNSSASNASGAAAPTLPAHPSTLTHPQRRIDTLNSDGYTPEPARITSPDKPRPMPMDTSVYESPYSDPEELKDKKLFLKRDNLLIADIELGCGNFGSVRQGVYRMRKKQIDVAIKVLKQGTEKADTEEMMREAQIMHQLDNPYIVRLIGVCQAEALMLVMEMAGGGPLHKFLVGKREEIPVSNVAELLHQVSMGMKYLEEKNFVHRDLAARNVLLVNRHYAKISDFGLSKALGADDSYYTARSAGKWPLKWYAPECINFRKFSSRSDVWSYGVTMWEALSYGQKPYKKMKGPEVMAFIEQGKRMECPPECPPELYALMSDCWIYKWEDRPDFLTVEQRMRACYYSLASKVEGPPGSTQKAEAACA
Chain of JNK3 (P53779 whole entry): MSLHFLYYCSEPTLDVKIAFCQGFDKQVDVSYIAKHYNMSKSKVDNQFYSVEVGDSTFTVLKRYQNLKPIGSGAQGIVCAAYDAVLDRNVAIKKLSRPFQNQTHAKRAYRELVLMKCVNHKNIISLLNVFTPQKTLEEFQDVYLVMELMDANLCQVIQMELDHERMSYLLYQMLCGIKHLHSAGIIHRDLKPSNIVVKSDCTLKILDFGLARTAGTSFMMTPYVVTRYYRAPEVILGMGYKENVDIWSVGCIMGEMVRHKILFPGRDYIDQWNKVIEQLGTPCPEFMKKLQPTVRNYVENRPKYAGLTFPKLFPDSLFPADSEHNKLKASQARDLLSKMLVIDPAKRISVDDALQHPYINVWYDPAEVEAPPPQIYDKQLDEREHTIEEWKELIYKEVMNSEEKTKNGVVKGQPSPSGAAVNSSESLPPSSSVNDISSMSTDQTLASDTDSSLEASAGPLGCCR
Chain of RSK1 (Q15418 whole entry): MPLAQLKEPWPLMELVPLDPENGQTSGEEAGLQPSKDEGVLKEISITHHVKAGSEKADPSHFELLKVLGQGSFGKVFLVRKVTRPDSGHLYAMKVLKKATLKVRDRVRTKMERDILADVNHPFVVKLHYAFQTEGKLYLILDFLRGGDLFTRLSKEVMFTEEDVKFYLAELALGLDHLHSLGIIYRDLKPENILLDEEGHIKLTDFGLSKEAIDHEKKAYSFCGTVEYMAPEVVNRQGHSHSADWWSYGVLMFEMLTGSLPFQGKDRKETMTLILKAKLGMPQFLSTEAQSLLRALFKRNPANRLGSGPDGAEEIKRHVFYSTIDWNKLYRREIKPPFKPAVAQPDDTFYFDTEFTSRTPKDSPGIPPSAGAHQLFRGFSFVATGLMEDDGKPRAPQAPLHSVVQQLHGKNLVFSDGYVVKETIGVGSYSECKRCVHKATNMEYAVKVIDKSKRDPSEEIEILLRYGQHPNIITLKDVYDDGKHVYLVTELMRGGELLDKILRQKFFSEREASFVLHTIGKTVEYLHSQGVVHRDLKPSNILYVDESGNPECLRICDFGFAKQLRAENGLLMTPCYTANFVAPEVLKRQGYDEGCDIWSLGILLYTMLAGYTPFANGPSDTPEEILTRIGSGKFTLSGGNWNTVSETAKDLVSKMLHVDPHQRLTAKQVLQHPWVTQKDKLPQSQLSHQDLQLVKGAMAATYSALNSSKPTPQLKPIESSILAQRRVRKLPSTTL
Chain of TBK1 (Q9UHD2 whole entry): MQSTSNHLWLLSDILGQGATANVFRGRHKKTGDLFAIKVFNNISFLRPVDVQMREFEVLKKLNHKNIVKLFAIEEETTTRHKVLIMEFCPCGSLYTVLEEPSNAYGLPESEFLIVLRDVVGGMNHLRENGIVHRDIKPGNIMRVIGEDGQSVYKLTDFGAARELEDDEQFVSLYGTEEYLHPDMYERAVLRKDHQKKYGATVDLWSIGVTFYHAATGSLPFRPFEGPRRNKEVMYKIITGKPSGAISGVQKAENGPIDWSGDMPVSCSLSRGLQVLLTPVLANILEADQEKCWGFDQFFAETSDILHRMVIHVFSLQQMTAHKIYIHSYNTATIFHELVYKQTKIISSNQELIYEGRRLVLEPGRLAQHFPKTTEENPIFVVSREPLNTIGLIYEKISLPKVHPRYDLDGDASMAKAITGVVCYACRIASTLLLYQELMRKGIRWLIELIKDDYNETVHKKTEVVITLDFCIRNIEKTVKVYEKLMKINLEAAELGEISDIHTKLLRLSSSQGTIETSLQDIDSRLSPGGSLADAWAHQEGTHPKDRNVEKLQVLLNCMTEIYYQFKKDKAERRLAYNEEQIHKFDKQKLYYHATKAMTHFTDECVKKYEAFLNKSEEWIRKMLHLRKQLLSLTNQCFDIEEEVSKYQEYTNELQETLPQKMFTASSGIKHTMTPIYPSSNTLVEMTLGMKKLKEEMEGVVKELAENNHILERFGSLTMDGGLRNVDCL

`Cc1nc(Nc2cnn(C3CCNCC3)c2)nc2c1N(C)C(=O)c1cc3ccccc3cc1N2C` [HTH-01-015] was tested. Which “BRK activity, percentage of DMSO control” value (BRK) did it give?
Its value is 96 percentage.

And the “EPH-B4 activity, percentage of DMSO control” value (EPH-B4)?
Its value is 102 percentage.

And the “HER4 activity, percentage of DMSO control” value (HER4)?
The value was 102 percentage.

What about the “PKA activity, percentage of DMSO control” value (PKA) of the same molecule?
The value was 101 percentage.

And the “RSK1 activity, percentage of DMSO control” value (RSK1)?
Its value is 93 percentage.

What about the “PDGFRA activity, percentage of DMSO control” value (PDGFRA) of the same molecule?
Its value is 109 percentage.

What about the “EPH-A2 activity, percentage of DMSO control” value (EPH-A2) of the same molecule?
Its value is 84 percentage.

And the “TBK1 activity, percentage of DMSO control” value (TBK1)?
Its value is 112 percentage.

And the “MST3 activity, percentage of DMSO control” value (MST3)?
Its value is 111 percentage.

What about the “JNK2 activity, percentage of DMSO control” value (JNK2) of the same molecule?
The value was 130 percentage.

And the “HIPK2 activity, percentage of DMSO control” value (HIPK2)?
Its value is 107 percentage.

And the “ZAP70 activity, percentage of DMSO control” value (ZAP70)?
Its value is 103 percentage.

And the “Lck activity, percentage of DMSO control” value (Lck)?
Its value is 90 percentage.

What about the “JNK3 activity, percentage of DMSO control” value (JNK3) of the same molecule?
Its value is 101 percentage.

What about the “DDR2 activity, percentage of DMSO control” value (DDR2) of the same molecule?
Its value is 91 percentage.

What about the “CHK1 activity, percentage of DMSO control” value (CHK1) of the same molecule?
Its value is 106 percentage.

What about the “TAK1 activity, percentage of DMSO control” value (TAK1) of the same molecule?
The value was 109 percentage.

What about the “WNK1 activity, percentage of DMSO control” value (WNK1) of the same molecule?
The value was 99 percentage.

What about the “SmMLCK activity, percentage of DMSO control” value (SmMLCK) of the same molecule?
Its value is 77 percentage.

What about the “CAMK1 activity, percentage of DMSO control” value (CAMK1) of the same molecule?
The value was 92 percentage.

And the “MARK2 activity, percentage of DMSO control” value (MARK2)?
The value was 99 percentage.

And the “BRSK2 activity, percentage of DMSO control” value (BRSK2)?
The value was 97 percentage.

And the “TSSK1 activity, percentage of DMSO control” value (TSSK1)?
Its value is 95 percentage.

And the “MSK1 activity, percentage of DMSO control” value (MSK1)?
The value was 111 percentage.

What about the “S6K1 activity, percentage of DMSO control” value (S6K1) of the same molecule?
Its value is 85 percentage.

What about the “STK33 activity, percentage of DMSO control” value (STK33) of the same molecule?
Its value is 93 percentage.

What about the “PKD1 activity, percentage of DMSO control” value (PKD1) of the same molecule?
Its value is 94 percentage.

And the “PIM1 activity, percentage of DMSO control” value (PIM1)?
The value was 92 percentage.

What about the “CDK9-Cyc T1 activity, percentage of DMSO control” value (CDK9-Cyc T1) of the same molecule?
Its value is 68 percentage.

And the “EF2K activity, percentage of DMSO control” value (EF2K)?
Its value is 103 percentage.

What about the “p38α MAPK activity, percentage of DMSO control” value (p38α MAPK) of the same molecule?
Its value is 118 percentage.

And the “ERK8 activity, percentage of DMSO control” value (ERK8)?
The value was 98 percentage.

What about the “CDK2-Cyclin A activity, percentage of DMSO control” value (CDK2-Cyclin A) of the same molecule?
The value was 96 percentage.

What about the “EPH-A4 activity, percentage of DMSO control” value (EPH-A4) of the same molecule?
Its value is 94 percentage.

What about the “PKCα activity, percentage of DMSO control” value (PKCα) of the same molecule?
Its value is 117 percentage.

And the “PAK5 activity, percentage of DMSO control” value (PAK5)?
Its value is 95 percentage.

And the “YES1 activity, percentage of DMSO control” value (YES1)?
Its value is 76 percentage.

And the “p38γ MAPK activity, percentage of DMSO control” value (p38γ MAPK)?
Its value is 100 percentage.

And the “PIM3 activity, percentage of DMSO control” value (PIM3)?
Its value is 97 percentage.

And the “SGK1 activity, percentage of DMSO control” value (SGK1)?
The value was 97 percentage.

And the “MST2 activity, percentage of DMSO control” value (MST2)?
The value was 118 percentage.

And the “MARK4 activity, percentage of DMSO control” value (MARK4)?
Its value is 75 percentage.

From article PMC3969223, “Characterization of WZ4003 and HTH-01-015 as selective inhibitors of the LKB1-tumour-suppressor-activated NUAK kinases” (Biochemical Journal, 2013)
